# Where two headings read alike, the source gives them in different places.
# Tests used:
# [1] = test system: pig's epidermis; details: pH 5.5
# Description: (§1) Dermatological compatibility was evaluated by determining the transepidermal water loss (TEWL) in a pig's epidermis. To this end, defined pieces of skin were treated with the various test solutions for 30 minutes at 40° C. and the TEWL value was gravimetrically determined. The test solutions were mixtures of 17% by weight Plantapon® PS 10 (sodium lauryl ether sulfate and Lauryl Glycoside, Cognis Düsseldorf) with 1.5% by weight fatty acid partial glycerides (see Table 1) in preservative-containing water (WAS 10% by weight). The pH was adjusted to 5.5 with citric acid.
# [2] = test system: pig's epidermis; experiment: Dermatological compatibility: transepidermal water loss (TEWL), gravimetric; details: for TEWL [%-rel] = [treated/untreated * 100] − 100%: […] by weight fatty acid partial glyceride in 17% by weight Plantapon PS 10, pH 5.5, skin treated 30 minutes at 40° C., lower value = better compatibility
# Description: as §1
Molecule,TEWL [%-rel] = [treated/untreated * 100] − 100% [1],TEWL [%-rel] = [treated/untreated * 100] − 100% [2],other results
Lauric acid mono/diglyceride (65:35) [Example 3],20.5 %-rel,,
"CCCCCCCCCCCC(=O)OCC(O)CO (centres unmarked) [Example 4, Lauric acid monoglyceride (>90)]",,10.5 %-rel,
Glycerol monocaprylate (>90) [Example 2],,,Transepidermal water loss / dermatological compatibility (in words) ([2]; compared with mixtures of 65% by weight monoglyceride and 35% by weight diglyceride): very good compatibility

# Further lines, with some results ahead:
TEWL [%-rel] = [treated/untreated * 100] − 100% [1],TEWL [%-rel] = [treated/untreated * 100] − 100% [2],Molecule,other results
22.0 %-rel,,Isostearic acid mono/diglyceride (65:35) [Example 7],
,18.5 %-rel,Isostearic acid monoglyceride (>90) [Example 8],
